Entries after “also recorded” stand apart in the source; their conditions may differ. Where two headings read alike, the source gives them in different places.
Experiments:
[1] = Hygroscopicity by dynamic vapor sorption (DVS); assay type: physicochemical; conditions: for hygroscopicity (in words): DVS, conditions up to 90% RH
Protocol: Dynamic vapor sorption analysis (DVS) was at times performed on the sample “as is”. Samples were placed in sample pan and underwent a 2-hour drying in a dry nitrogen stream. The samples were then analyzed under the following conditions:
Isothermal Sequence: • Adsorption: 10-90% RH; step size 10% • Desorption: 85-0% RH; step size 10%
Each RH point was obtained after the weight loss curve reached an asymptote. After the isotherm was complete, the sample was heated to 80° C. until the weight loss curve reached an asymptote or for 4 hours maximum.
Hygroscopicity studies were conducted by DVS on both the original Form I (FIG. 4) and the thermally converted Form II (FIG. 5) of DA-5018. […] In an attempt to further evaluate the physical form of the dihydrate, a second sample of DA-5018 was converted to the dihydrate by exposing the material to 85% RH overnight in the DVS instrument.

[2] = test system: tail flick response to radiant heat; conditions: cited from earlier work; for Inhibition (%): mice
[3] = test system: yeast induced hyperalgesia; assay: Randall-Selitto test; assay type: in vivo, rat; conditions: rats, pain threshold of yeast-injected foot
Protocol: Randall-Selitto Test was carried out by following the method described in Arch. Int.
Male albino rats (120-170 g) of the Charles River Sprague-Dawley strain are used. Inflammation is produced by the injection of 0.1 mL of a 20% suspension of Brewer's yeast into the plantar surface of the rat's hind foot.
The pain threshold is measured as the pressure in mm Hg required to induce the desired response (a sharp audible squeak and/or struggle) when the pressure is applied to the foot. Air pressure from an air line is admitted through a needle valve to a 20 mL glass syringe and to a pressure gauge connected by a T-tube. The syringe is mounted with the plunger downward to which is connected a short bullet-shaped Teflon peg. The pressure is applied to the foot of the rat at the rate of 10 mmHg per second. Drug is given 2 hours after the yeast injection. Two hours after the drug administration, threshold response is determined.
The analgesic activity was determined in terms of the percentage of inhibition of response: Inhibition (%)=(TTG−TCG)/TCG×100, where TTG is the Threshold of Treated Group, and TCG is the Threshold of the Control Group.

[4] = Qualitative solubility of DA-5018 in common solvents; assay type: physicochemical
Protocol: In order to show which solvents or solvent/antisolvent combinations are appropriate for crystallization studies, the solubility of DA-5018 in twelve solvents was qualitatively evaluated on a 500 mg-scale. In these experiments, DA-5018 was suspended in 5 volumes of the appropriate solvent and stirred at ambient temperature, then incrementally heated until a complete solubilization was achieved.

[5] = Solubility curve / metastable zone width in methanol/water (1:1.25, v/v); assay type: physicochemical
Protocol: A standard procedure to determine the width of the metastable zone was used to determine the solubility curves of DA-5018 in methanol/water (1:1.25, v/v). In this procedure, DA-5018 (2.0 g) was suspended in 15 mL (7.5 vol) of methanol/water (1:1.25, v/v) and heated until all solids were dissolved (approximately 55° C.). The resulting solution was then very slowly cooled at a fixed rate of 0.2° C./min and the nucleation temperature recorded. The mixture was slowly reheated and the temperature of complete dissolution recorded. The solution was then iteratively diluted with a known volume of solvent and the nucleation as well as the dissolution points recorded at gradually lower concentrations to provide additional data points on the saturation curve as well as on the solubility curve. By definition, for a given concentration, the distance between the solubility curve and the saturation curve provides the metastable zone width (MSZW), in which crystal growth can be achieved upon careful seeding and controlled cooling, antisolvent addition, evaporation or pH adjustment, depending on the chosen crystallization conditions. Such a protocol is often crucial in maximizing crystal growth and curbing spontaneous, secondary nucleation that leads to uncontrolled crystallization.

[6] = Thermal stress experiments (DSC and XRPD), interconversion of forms; assay type: physicochemical
Protocol: To further evaluate these observations, DSC thermograms were obtained for select compounds at various ramping rates to evaluate interconversion of forms, as shown in FIGS. 2(a)-2(c) and 3(a)-3(c). FIGS. 2(a)-2(c) show the conversion of Form I to Form II. The conversion is most readily observed in FIG. 2(a), as conversion was more difficult to observe at the faster ramp rates. […] Additionally, isothermal heating experiments were performed with evaluation by DSC and XRPD to confirm any change of form, as shown in FIGS. 2(d)-2(f) and 3(d)-(f) and Table 3. FIGS. 2(e) and 3(e) show the original XRPD for Forms I and IV, respectively, while FIGS. 2(f) and 3(f) show the XRPD of Form II, formed after thermal conversion.

[7] = test system: adjuvant induced hyperalgesia; conditions: 5 mg/Kg; rats; DA-5018 perorally two hours before tail-pinch testing; cited from earlier work

Q: Which “moisture retention upon desorption (in words)” value ([1]; DVS desorption) does the source give for `COc1cc(CC(=O)NCCCc2ccc(C)c(C)c2)ccc1OCCN` [Form II, 2-[4-(2-aminoethoxy)-3-methoxyphenyl]-N-[3-(3,4-dimethylphenyl)propyl]acetamide] here?
A: Its value is “did not retain moisture upon desorption”.

Q: What about the “hygroscopicity (in words)” value [1] of the same molecule?
A: Its value is “non-hygroscopic; also recorded: no appreciable hygroscopicity”.

Q: For `CN1C(C(=O)Nc2ccccn2)=C(O)c2ccccc2S1(=O)=O` [Piroxicam], which “Inhibition (%)” value ([2]; 100 mg/Kg p. o.) is on record?
A: Its value is 0%.

Q: For `CC(=O)Oc1ccccc1C(=O)O` [Aspirin], which “Inhibition (%)” value ([3]; 100 mg/Kg s. c.) is on record?
A: Its value is 80.1%.

Q: And the “Inhibition (%)” value ([2]; 100 mg/Kg p. o.)?
A: Its value is 0%.

Q: What does the source list for `COc1cc(CC(=O)NCCCc2ccc(C)c(C)c2)ccc1OCCN` [DA-5018, 2-[4-(2-aminoethoxy)-3-methoxyphenyl]-N-[3-(3,4-dimethylphenyl)propyl]acetamide]?
A: solubility (in words) ([4]; MEK, MIBK, EtOAc, IPAc and acetonitrile): sparingly soluble; solubility (in words) ([4]; methanol at 50° C.): freely soluble; solubility (in words) ([4]; methyl tert-butyl ether (MTBE), even at reflux): limited solubility; DA-5018 Solubility Trend ([4]; ranking of solvents, 500 mg-scale, 5 volumes of solvent, ambient temperature then incrementally heated): Acetone >> Methanol > THF > Ethanol, 1-Propanol > 2-; also recorded: Propanol> MEK > MIBK > CH3CN, EtOAc, IPAc >> MTBE >>> Water; Inhibition (%) ([3]; 5 mg/Kg p. o.): 247.4%; Nucleation Temperature (° C.) ([5]; 2.0 g DA-5018 in 15 mL methanol/water (1:1.25, v/v), cooled at 0.2° C./min): 39.1 °C; Nucleation Temperature (° C.) ([5]; 2.0 g DA-5018 in 20 mL methanol/water (1:1.25, v/v)): 34.6 °C; Nucleation Temperature (° C.) ([5]; 2.0 g DA-5018 in 25 mL methanol/water (1:1.25, v/v)): 34.5 °C; Nucleation Temperature (° C.) ([5]; 2.0 g DA-5018 in 30 mL methanol/water (1:1.25, v/v)): 34.2 °C

Q: For `COc1cc(CC(=O)NCCCc2ccc(C)c(C)c2)ccc1OCCN` [Form IV, 2-[4-(2-aminoethoxy)-3-methoxyphenyl]-N-[3-(3,4-dimethylphenyl)propyl]acetamide], which “conversion of form under thermal stress / melt (in words)” value ([6]; DSC at various ramping rates, melt) is on record?
A: Its value is “conversion of Form IV to Form II”.

Q: With `CCCCCCCC/C=C\CCCCCCCC(=O)NCc1ccc(OCCN)c(OC)c1` [NE-21610] as the molecule, how does the “Inhibition (%)” value ([2]; 200 mg/Kg p. o.) read?
A: The value was 50%.

Q: With `COc1cc(CC(=O)NCCCc2ccc(C)c(C)c2)ccc1OCCN` [Form III, 2-[4-(2-aminoethoxy)-3-methoxyphenyl]-N-[3-(3,4-dimethylphenyl)propyl]acetamide] as the molecule, how does the “relative humidity to which the dihydrate is stable upon desorption” value ([1]; DVS desorption) read?
A: The value was no less than 30 % RH.

Q: Which “Inhibition (%)” value ([3]; 3 mg/Kg s. c.) does the source give for `CN1CC[C@]23c4c5ccc(O)c4O[C@H]2[C@@H](O)C=C[C@H]3[C@H]1C5` [Morphine] here?
A: The value was 391.7%.

Q: What about the “activity in the tail flick test (in words)” value ([2]; mouse, in vivo) of the same molecule?
A: The value was “active”.

Q: What does the source list for `COc1cc(CC(=O)NCCCc2ccc(C)c(C)c2)ccc1OCCN` [Form I, 2-[4-(2-aminoethoxy)-3-methoxyphenyl]-N-[3-(3,4-dimethylphenyl)propyl]acetamide]?
A: conversion of form under thermal conditions (in words) ([6]; 10 minutes of isothermal heating near melting point, 105° C.): convert to Form II; hygroscopicity (in words) [1]: propensity to absorb moisture; relative humidity at which moisture is taken up ([1]; less crystalline, or amorphous, samples): approximately 30 % RH

Q: Which results are given for “3-(3,4-Dimethylphenyl)acrylonitrile [Example 1]”?
A: Inhibition (%) ([2]; 0.5 mg/Kg s. c.): 50%; Inhibition (%) ([2]; 1.0 mg/Kg s. c.): 70%

Q: Which “Analgesic activity (%)” value [7] does the source give for `COc1ccc2cc([C@H](C)C(=O)O)ccc2c1` [Naproxen] here?
A: Its value is 28.6%.

Q: Which “Inhibition (%)” value ([2]; 25 mg/Kg, route not given) does the source give for `COc1cc(CNC(=O)CCCC/C=C/C(C)C)ccc1O` [Capsaicin, trans-8-methyl-N-vanillyl-6-nonenamide] here?
A: Its value is 90%.

Reference: patent US20060047171A1, “Catalytic hydrogenation of nitriles to produce capsaicinoid derivatives and amine compounds, and methods for purifying and obtaining the polymorphs thereof” (priority 2003, published 2006)
